# Assay results as given in patent EP0139005A1, “ANTITUMOR COMPOSITION, METHOD FOR TREATING TUMOR, AND USE OF THE COMPOSITION FOR TREATING TUMOR” (Yoshitomi Pharmaceutical Industries, Ltd., priority 1982, dated 1984).
# Key:
# [1] = Acute toxicity in AH-44 carcinoma bearing rats (Experimental Example 11); conditions: rat, in vivo, Donryu rats with AH-44 carcinoma cells
# Description: (§1) Acute toxicity value when Y-6430 was administered intraperitoneally to male ddn mice was 1,500 mgjkg or more. 'Acute toxicity values when AH-44 carcinoma cells were implanted peritoneally and orally to Donryu rats were both 1,000 mg/kg or more.
# [2] = test system: human breast carcinoma MX-1; assay: Human breast carcinoma MX-1 implanted into kidneys, tumor weight change (Experimental Example 10); format: in vivo, male Swiss nude mice; conditions: 5th day and 9th day, tumor weight change on 11th day, experiment conducted by National Cancer Institute
# Description: A plurality of groups each consisting of six male Swiss nude mice as test groups and twelve of them as the control group were implanted into the respective kidneys with human breast carcinoma MX-1. Each of the animals was administered subcutaneously with Y-6430 dissolved in physiological saline on the next day to the implantation, 5th day and 9th day. On llth day, each of the weight of carcinoma was measured, and the tumor weight change (%) of the implanted carcinoma was calculated in accordance with the following scheme.
# P388 leukemia = P388 leukemia implanted intraperitoneally, survival (Experimental Example 2); format: in vivo, female CDF1 mice; conditions: for 30-day Survivors / Average Survival Time / Life-Prolongation Ratio (%): once daily for seven days
# Description: The life-prolongation ratio was calculated by the following scheme (the same scheme is applied to the subsequent experimental examples).
# Life-prolongation Ratio [formula] T : Average survival days of the treated group
# C : Average survival days of the control group
# Animals survived over 30 days or longer were estimated as 30-day survivors, and the cases where T/C equals to or greater than 125% were regarded as effective.
# A plurality of groups each consisting of five heads of female CDF1 mice (7-8 weeks old) were respectively implanted intraperitoneally with 10^6 cells of P388 leukemia. After 24 hours, Y-6430 and ESCC were respectively administered once daily for seven days, and average survival days, life-prolongation ratios and 30-day survivors in each group were calculated.
# [3] = Acute toxicity in mice (Experimental Example 11); conditions: mouse, in vivo, ip; administered intraperitoneally, male ddn mice
# Description: as §1
structure (smiles),measurement,setting,value
"CCOC(=O)[C@@H](N)CSC(=O)NC.Cl [Y-6430, S-methylcarbamoyl-L-cysteine ethyl ester hydrochloride]",LD50,"[1]; ip, peritoneally",≥ 1000 mg/kg
same,LD50,"[1]; po, orally",≥ 1000 mg/kg
same,Proliferation Ratio (%),[2]; 225 mg/kg s.c. on next day,-70%
same,Proliferation Ratio (%),[2]; 450 mg/kg s.c. on next day,-64%
same,Proliferation Ratio (%),[2]; 900 mg/kg s.c. on next day,-65%
same,30-day Survivors,P388 leukemia; 100 mg/kg/day i.p.,0/5
same,Average Survival Time,P388 leukemia; 100 mg/kg/day i.p.,13.4 days
same,Life-Prolongation Ratio (%),P388 leukemia; 100 mg/kg/day i.p.,134%
same,30-day Survivors,P388 leukemia; 100 mg/kg/day p.o.,0/5
same,Average Survival Time,P388 leukemia; 100 mg/kg/day p.o.,11.6 days
same,Life-Prolongation Ratio (%),P388 leukemia; 100 mg/kg/day p.o.,116%
same,30-day Survivors,P388 leukemia; 250 mg/kg/day i.p.,0/5
same,Average Survival Time,P388 leukemia; 250 mg/kg/day i.p.,14.6 days
same,Life-Prolongation Ratio (%),P388 leukemia; 250 mg/kg/day i.p.,146%
same,30-day Survivors,P388 leukemia; 250 mg/kg/day p.o.,0/5
same,Average Survival Time,P388 leukemia; 250 mg/kg/day p.o.,13.4 days
same,Life-Prolongation Ratio (%),P388 leukemia; 250 mg/kg/day p.o.,134%
same,30-day Survivors,P388 leukemia; 500 mg/kg/day i.p.,0/5
same,Average Survival Time,P388 leukemia; 500 mg/kg/day i.p.,17.2 days
same,Life-Prolongation Ratio (%),P388 leukemia; 500 mg/kg/day i.p.,172%
same,30-day Survivors,P388 leukemia; 500 mg/kg/day p.o.,0/5
same,Average Survival Time,P388 leukemia; 500 mg/kg/day p.o.,15.0 days
same,Life-Prolongation Ratio (%),P388 leukemia; 500 mg/kg/day p.o.,150%
same,30-day Survivors,"P388 leukemia; 1,000 mg/kg/day p.o.",0/5
same,Average Survival Time,"P388 leukemia; 1,000 mg/kg/day p.o.",16.6 days
same,Life-Prolongation Ratio (%),"P388 leukemia; 1,000 mg/kg/day p.o.",166%
same,effectiveness against P388 leukemia,"P388 leukemia; summary of Tables 2 and 3, T/C equal to or greater than 125% regarded as effective",effective
same,LD50,[3],≥ 1500 mg/kg
